Our source for the IC50 values is patent US20080107625A1, “Inhibitors of Hepatitis C Virus” (Bristol-Myers Squibb Company, priority 2006, published 2008).

Structures are written as SMILES.

The target of one assay is T1, human liver cathepsin B (Homo sapiens, UniProt P07858).
T1 construct: purchased Sigma or EMDbiosciences; host or cells: human liver (as named)
Description: Specificity assay, cathepsin B. Type of assay: biochemical. As for the experimental part:
The specificities of compounds of the present disclosure were determined against a variety of serine proteases: human neutrophil elastase (HNE), porcine pancreatic elastase (PPE) and human pancreatic chymotrypsin and one cysteine protease: human liver cathepsin B. In all cases, a 96-well plate format protocol using colorimetric p-nitroaniline (pNA) substrate or fluorometric Amino-Methyl-Coumarin (AMC) substrate, specific for each enzyme was used as described previously (PCT Patent Application No. WO 00/09543) with some modifications. All enzymes were purchased from Sigma or EMDbiosciences while the substrates were from Bachem.
Each pNA assay included a 2 h enzyme-inhibitor pre-incubation at room temperature followed by addition of substrate and hydrolysis to ˜15% conversion as measured on a Spectramax Pro microplate reader. The cathepsin B assay was initiated by adding substrate to a 10 min enzyme-inhibitor pre-incubation at room temperature, and the assay plate measured immediately using the Cytofluor Series 4000. Compound concentrations varied from 100 to 0.4 μM depending on their potency. […]
The percentage of inhibition was calculated using the formula: [1−((UVinh−UVblank)/(UVctl−UVblank))]×100 […]

Assay [1] addresses T2, HCV NS3/4A protease complex, J4L6S strain (Hepatitis C virus genotype 1b, UniProt O92972, C1454S/C1711G).
T2 construct: recombinant HCV NS3/4A protease complex (amino acids 1027 to 1711) for these strains; His-tag (inferred from pET21b vector and Ni-NTA purification); made in house; host or cells: Escherichia coli BL21 (DE3), pET21b
Description: FRET peptide assay to monitor HCV NS3/4A proteolytic activity (J4L6S strain). In kind it is biochemical. As to conditions: J4L6S strain (1b genotype). The source says:
HCV NS3 protease complexes, derived from the BMS strain, H77 strain or J4L6S strain, were generated, as described below. These purified recombinant proteins were generated for use in a homogeneous assay (see below) to provide an indication of how effective compounds of the present disclosure would be in inhibiting HCV NS3 proteolytic activity.
The H77 and J4L6S strains were used for production of recombinant NS3/4A protease complexes. DNA encoding the recombinant HCV NS3/4A protease complex (amino acids 1027 to 1711) for these strains were manipulated as described by P. Gallinari et al. (see Gallinari P, Paolini C, Brennan D, Nardi C, Steinkuhler C, De Francesco R. Biochemistry. 38(17):5620-32, (1999)). Briefly, a three-lysine solubilizing tail was added at the 3′-end of the NS4A coding region. The cysteine in the P1 position of the NS4A-NS4B cleavage site (amino acid 1711) was changed to a glycine to avoid the proteolytic cleavage of the lysine tag. Furthermore, a cysteine to serine mutation was introduced by PCR at amino acid position 1454 to prevent the autolytic cleavage in the NS3 helicase domain. […]

By IC50 is commonly meant the concentration that gives 50% inhibition.

T2 sequence (O92972 1027-1711 C1454S/C1711G, one chain of several): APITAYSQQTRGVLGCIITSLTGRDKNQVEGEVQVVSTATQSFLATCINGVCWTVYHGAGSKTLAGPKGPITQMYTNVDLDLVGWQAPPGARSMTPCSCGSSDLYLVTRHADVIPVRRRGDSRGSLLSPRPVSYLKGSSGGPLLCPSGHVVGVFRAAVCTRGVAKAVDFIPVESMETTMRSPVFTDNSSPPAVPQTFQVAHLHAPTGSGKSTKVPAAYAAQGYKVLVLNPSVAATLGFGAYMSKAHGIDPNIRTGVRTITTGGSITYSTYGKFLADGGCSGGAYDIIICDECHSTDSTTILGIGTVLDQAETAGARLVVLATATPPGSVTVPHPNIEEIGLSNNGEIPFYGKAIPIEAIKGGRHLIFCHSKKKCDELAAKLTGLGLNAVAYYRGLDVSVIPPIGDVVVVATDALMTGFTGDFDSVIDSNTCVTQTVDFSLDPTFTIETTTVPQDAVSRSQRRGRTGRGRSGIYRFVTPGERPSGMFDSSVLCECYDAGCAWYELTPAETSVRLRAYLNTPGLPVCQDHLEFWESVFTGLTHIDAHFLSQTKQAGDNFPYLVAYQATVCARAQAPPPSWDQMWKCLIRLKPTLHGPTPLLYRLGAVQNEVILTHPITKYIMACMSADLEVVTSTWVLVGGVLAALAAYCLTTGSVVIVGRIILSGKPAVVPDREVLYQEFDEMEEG

Turning to `CC(C)(C)OC(=O)N[C@H]1CN(C2CC2)CCC/C=C\C2C[C@@]2(C(=O)NS(=O)(=O)C2CC2)NC(=O)[C@@H]2C[C@@H](Oc3ccccn3)CN2C1=O` (some centres unmarked) [Compound 1], the IC50 on human liver cathepsin B was over 100000 nM; in assay [1] it was 12 nM.
